Measurements: patent US20180251431A1 (VERTEX PHARMACEUTICALS INCORPORATED, priority 2016, published 2018)
Where two headings read alike, the source gives them in different places.

Tested on: HEK293 cells
Assay: HEK293 VLCFA-LPC IC50 determination (13C-labeled C26:0 LPC by UHPLC/MS)
Assay type: cell-based, human
Conditions: average of one or more replicates, read-out: Average HEK293 IC50
Experimental: HEK293 cells were treated with compounds, such as those listed in Tables A-E of Example 1, using the representative manual protocols described below. The protocols below were also adapted to a semi-automated protocol using standard methods in the art.
Cell Culture Growth Conditions:
HEK293 cells were maintained in FreeStyle F17 media (Gibco # A13835) supplemented with PenStrep (1%, Gibco #15070-063), Glutamax (2%, Gibco #35050-061), and Pluronic (0.1%, Gibco #24040-032) (“supplemented media”). Suspension cultures were grown in disposable Erlenmeyer flasks at about 120 rpm, 37° C., 5% CO2, and 80% humidity. Cell densities were kept between about 0.5 and 3 million cells per mL, in about 50-200 mL per flask.
Treatment of Cells with Compounds Provided Herein:
The cells were treated with compounds using either a total of 900 uL cell media volume (high-volume assay) or a total of 200 uL cell media volume (low-volume assay). In the high volume assay, 450 μL of supplemented media plus 13C-acetate (1.0 mg/mL, Sigma Aldrich #282014) were added to 0.5 μL of a compound (such as those in Tables A-E) in DMSO in a polypropylene v-bottom plate (Costar #3363) in 1 of 3 dilution schemes. The contents of each well were mixed and transferred to a sterile polypropylene deep-well v-bottom plate (Costar #3960). 450 μL of cultured HEK293 cells in supplemented media at a density of 1.0 million cells/mL was added to each well. In the low volume assay, 100 μL of supplemented media plus 13C-acetate (1.0 mg/mL, Sigma Aldrich #282014) were added to either 0.1 μL or 1.0 uL of a compound (such as those in Tables A-E) in DMSO in a polypropylene v-bottom plate (Costar #3363) in 1 of 3 dilution schemes. 100 μL of cultured HEK293 cells in supplemented media at a density of 1.0 million cells/mL was added to each well. The high volume and low volume plates were sealed with either AirPore Tape Sheets (Qiagen #19571) or Duetz plate covers to control evaporation and placed into a shaking incubator at 225 rpm, 37° C., 5% CO2, and 80% humidity for 48 hours. For both the high and low volume assays the 3 dilution schemes used were as follows:
Following incubation, treated cells were harvested by centrifugation at 1690×g for 10 minutes. In the high volume assay 200 uL treated cells were transferred to a polypropylene v-bottom plate (Costar #3363) prior to centrifugation. In the low volume assay the incubation plate was centrifuged directly, without a transfer step. The supernatant was then discarded and the analytes were extracted using 1 of 2 different extraction schemes. In the first scheme, the cell pellet was visibly broken up by mixing the cell pellet up and down in 100 μL of hexane/isopropanol (60:40) 20 times. The resulting mixture was transferred to a 0.45 μm Durapore membrane (Millipore #MSH VN4510) atop a polypropylene v-bottom plate (Costar #3363) and filtered by centrifugation at 1690×g for 5 minutes. 120 μL of n-butanol containing 10 nM C13:0 lysophosphatidylcholine was added to the filtrate as an injection control standard, then the entire volume was transferred to a new Durapore membrane/v-bottom plate. In the second scheme, the cell pellet was visibly broken up by mixing the cell pellet up and down in 180 μL of methanol containing 10 nM C13:0 lysophosphatidylcholine 20 times. The resulting mixture was transferred to a 0.45 μm Durapore membrane (Millipore #MSH VN4510) atop a polypropylene v-bottom plate and filtered by centrifugation at 1690×g for 5 minutes. In both schemes, the plates were then sealed with pierceable capmats (Micronic MP53017) and stored at −20 OC until analyzed.
UHPLC/Mass Spectrometry Readout:
The filtered organic extraction was analyzed with a 1290 Agilent Infinity Series UHPLC coupled to an ABI Sciex QTrap 6500 mass spectrometer. […]

[1] = Homo sapiens, HEK293, HEK293 cells
[2] = Homo sapiens, HEK293, 48 h, 13C-labeled C26:0 LPC, 48 hours

| SMILES | IC50 [1] [nM] | other results |
| --- | --- | --- |
| O=C(Cc1ccc(F)cc1)Nc1ccn(-c2ccccc2)n1 [Compound 16, 2-(4-fluorophenyl)-N-(1-phenylpyrazol-3-yl)acetamide] | 330 | – |
| O=C(Nc1ccn(-c2ccccc2)n1)C1(c2ccccc2)CC1(F)F (single isomer, unassigned) [Compound 367] | – | IC50 (13C-labeled C26:0 LPC, 48 hours): 110 nM |
| N#Cc1ccccc1C1(C(=O)Nc2ccn(-c3ccnc(F)c3)n2)CC1 [Compound 247, 1-(2-cyanophenyl)-N-[1-(2-fluoro-4-pyridyl)pyrazol-3-yl]cyclopropanecarboxamide] | 2500 | – |
| Cc1cc(-n2ccc(NC(=O)C3(c4ccccc4F)CC3)n2)ccn1 [Compound 113, 1-(2-fluorophenyl)-N-[1-(2-methyl-4-pyridyl)pyrazol-3-yl]cyclopropanecarboxamide] | 1600 | – |
| Nc1ncc(-n2ccc(NC(=O)C3(c4ccccc4F)CC3)n2)cc1F [Compound 399, N-[1-(6-amino-5-fluoro-3-pyridyl)pyrazol-3-yl]-1-(2-fluorophenyl)cyclopropanecarboxamide] | 280 | – |
| O=C(Nc1ccn(-c2ccnc(F)c2)n1)C1(c2ncccc2F)CC1 [Compound 277, 1-(3-f1uoro-2-pyridyl)-N-[1-(2-fluoro-4-pyridyl)pyrazol-3-yl]cyclopropanecarboxamide] | 120 | – |
| O=C(Nc1ccn(-c2ccc(C(F)(F)F)nc2)n1)C1(c2ccccc2F)CC1 [Compound 315, 1-(2-fluorophenyl)-N-(1-(6-(trifluoromethyl)pyridin-3-yl)-1H-pyrazol-3-yl)cyclopropane-1-carboxamide] | – | IC50 [2]: > 5000 nM |
| O=C(Nc1ccn(-c2ccc(F)cc2)n1)C1(c2ccccc2F)CC1 [Compound 182, 1-(2-fluorophenyl)-N-[1-(4-fluorophenyl)pyrazol-3-yl]cyclopropanecarboxamide] | 74 | – |
| O=C(Nc1ccn(-c2ccncn2)n1)C1(c2ccccc2)CC1 [Compound 207, 1-phenyl-N-(1-pyrimidin-4-ylpyrazol-3-yl)cyclopropanecarboxamide] | 36 | – |
| O=C(Nc1ccn(-c2cncc(F)c2)n1)C1(c2ncccn2)CC1 [Compound 529, N-[1-(5-fluoro-3-pyridyl)pyrazol-3-yl]-1-pyrimidin-2-yl-cyclopropanecarboxamide] | 1300 | – |
| O=C(Nc1ccn(-c2cncc(F)c2)n1)C1(c2ccccc2)CC1 [Compound 201, N-[1-(5-fluoro-3-pyridyl)pyrazol-3-yl]-1-phenyl-cyclopropanecarboxamide] | 46 | – |
| O=C(Cc1cccs1)Nc1ccn(-c2ccccc2)n1 [Compound 37, N-(1-phenylpyrazol-3-yl)-2-(2-thienyl)acetamide] | 64 | – |
| COc1cc(-n2ccc(NC(=O)C3(c4ccccc4F)CC3)n2)nc(C)n1 [Compound 359, 1-(2-fluorophenyl)-N-[1-(6-methoxy-2-methyl-pyrimidin-4-yl)pyrazol-3-yl]cyclopropanecarboxamide] | – | IC50 [2]: > 5000 nM |
| O=C(Nc1ccn(-c2ccccc2)n1)C(c1ccccc1)C1CC1 (stereo not drawn) [Compound 179, 2-cyclopropyl-2-phenyl-N-(1-phenylpyrazol-3-yl)acetamide] | 1600 | – |
| COc1ccc(CC(=O)Nc2ccn(-c3ccccc3)n2)cc1F [Compound 63, 2-(3-fluoro-4-methoxy-phenyl)-N-(1-phenylpyrazol-3-yl)acetamide] | > 5000 | – |
| O=C(Nc1ccn(-c2cnnc(O)c2)n1)C1(c2ccccc2F)CC1 [Compound 356, 1-(2-fluorophenyl)-N-[1-(6-hydroxypyridazin-4-yl)pyrazol-3-yl]cyclopropanecarboxamide] | – | IC50 [2]: > 5000 nM |
| O=C(Nc1ccn(-c2ccncn2)n1)C1(c2ccncc2F)CC1 [Compound 278, 1-(3-fluoro-4-pyridyl)-N-(1-pyrimidin-4-ylpyrazol-3-yl)cyclopropanecarboxamide] | > 5000 | – |

| SMILES | IC50 [1] [nM] | other results |
| --- | --- | --- |
| O=C(Cc1ccc(F)c(F)c1)Nc1ccn(-c2ccccc2)n1 [Compound 57, 2-(3,4-difluorophenyl)-N-(1-phenylpyrazol-3-yl)acetamide] | > 5000 | – |
| Cc1ncc(C#N)c(-n2ccc(NC(=O)C3(c4ccccc4F)CC3)n2)n1 [Compound 344, N-[1-(5-cyano-2-methyl-pyrimidin-4-yl)pyrazol-3-yl]-1-(2-fluorophenyl)cyclopropanecarboxamide] | – | IC50 [2]: > 5000 nM |
| O=C(Cc1ccon1)Nc1ccn(-c2ccnc(F)c2)n1 [Compound 304, N-[1-(2-fluoro-4-pyridyl)pyrazol-3-yl]-2-isoxazol-3-yl-acetamide] | > 5000 | – |
| O=C(Cc1cc(F)c(F)cc1F)Nc1ccn(-c2ccccc2)n1 [Compound 75, N-(1-phenylpyrazol-3-yl)-2-(2,4,5-trifluorophenyl)acetamide] | > 2000 | – |
| O=C(Cc1ccccc1F)Nc1ccn(-c2ccccc2F)n1 [Compound 187, 2-(2-fluorophenyl)-N-[1-(2-fluorophenyl)pyrazol-3-yl]acetamide] | 520 | – |
| O=C(Cc1ccccc1)Nc1ccn(-c2ccc(F)c(F)c2)n1 [Compound 189, N-[1-(3,4-difluorophenyl)pyrazol-3-yl]-2-phenyl-acetamide] | 230 | – |
| COc1cc(-n2ccc(NC(=O)C3(c4ccccc4F)CC3)n2)ccn1 [Compound 259, 1-(2-fluorophenyl)-N-(1-(2-methoxypyridin-4-yl)-1H-pyrazol-3-yl)cyclopropane-1-carboxamide] | 51 | – |
| COc1cc(F)ccc1-n1ccc(NC(=O)C2(c3ccccc3F)CC2)n1 [Compound 429, N-[1-(4-fluoro-2-methoxy-phenyl)pyrazol-3-yl]-1-(2-fluorophenyl)cyclopropanecarboxamide] | > 5000 | – |
| Cn1ccnc1CC(=O)Nc1ccn(-c2ccccc2)n1 [Compound 311, 2-(1-methylimidazol-2-yl)-N-(1-phenylpyrazol-3-yl)acetamide] | > 5000 | – |
| O=C(Nc1ccn(-c2cnc(C(F)(F)F)nc2)n1)C1(c2ccccc2F)CC1 [Compound 381, 1-(2-fluorophenyl)-N-[1-[2-(trifluoromethyl)pyrimidin-5-yl]pyrazol-3-yl]cyclopropanecarboxamide] | – | IC50 [2]: > 5000 nM |
| O=C(Cc1ccon1)Nc1ccn(-c2ccccc2)n1 [Compound 306, 2-isoxazol-3-yl-N-(1-phenylpyrazol-3-yl)acetamide] | > 2000 | – |
| Cc1ncncc1-n1ccc(NC(=O)C2(c3ccccc3F)CC2)n1 [Compound 341, 1-(2-fluorophenyl)-N-[1-(4-methylpyrimidin-5-yl)pyrazol-3-yl]cyclopropanecarboxamide] | – | IC50 [2]: 700 nM |
| Cc1cncc(-n2ccc(NC(=O)C3(c4ccccc4F)CC3)n2)c1 [Compound 323, 1-(2-fluorophenyl)-N-[1-(5-methyl-3-pyridyl)pyrazol-3-yl]cyclopropanecarboxamide] | – | IC50 [2]: 350 nM |
| Nc1cc(-n2ccc(NC(=O)C3(c4ccccc4F)CC3)n2)ccn1 [Compound 393, N-[1-(2-amino-4-pyridyl)pyrazol-3-yl]-1-(2-fluorophenyl)cyclopropanecarboxamide] | 1900 | – |
| O=C(Nc1ccn(-c2ccc(F)c(F)c2)n1)C1(c2ncccc2F)CC12CC2 (stereo not drawn) [Compound 522, N-[1-(3,4-difluorophenyl)pyrazol-3-yl]-2-(3-fluoro-2-pyridyl)spiro[2.2]pentane-2-carboxamide] | 810 | – |
| Cc1ccc(-n2ccc(NC(=O)C3(c4ccccc4F)CC3)n2)cn1 [Compound 120, 1-(2-fluorophenyl)-N-[1-(6-methyl-3-pyridyl)pyrazol-3-yl]cyclopropanecarboxamide] | 620 | – |
